Source: patent US10450347B2, “Immunomodulators” (BRISTOL-MYERS SQUIBB COMPANY, priority 2015, dated 2019)
Starred links: 1 amine or outer side, 2 acyl side, 3 side chain; linkers in the order of their positions; H or OH if unused. Positions of bridges follow the written chain, without caps; N, C: chain ends. Non-standard residues stand in square brackets, D forms with d. Residues, ends and D or L forms follow the SMILES beside them. ξ: configuration not given here. Tyrψ(CN4)Ala = C[C@@H](C(=O)[*:2])n1nnnc1[C@H](Cc1ccc(O)cc1)N[*:1]; X1 = CCCC[C@@H](C(=O)[*:2])n1nnnc1[C@H](Cc1c[nH]c2ccccc12)N[*:1]; Morpholine(3S-CO) = O=C(O)[C@@H]1COCCN1; X2 = O=C(Cn1nnnc1C1(N[*:1])CCCCC1)[*:2]; Bta = N[C@@H](Cc1csc2ccccc12)C(=O)O; Hyp = O=C(O)[C@@H]1C[C@@H](O)CN1; NMeF = CN[C@@H](Cc1ccccc1)C(=O)O; NMeNle = CCCC[C@H](NC)C(=O)O; ξH = NC(Cc1c[nH]cn1)C(=O)O; NMeA = CN[C@@H](C)C(=O)O; Orn = NCCC[C@H](N)C(=O)O; Dap = NC[C@H](N)C(=O)O; Sar = CNCC(=O)O

Biological target: T1, PD-1-Ig/PD-L1-His (Homo sapiens, UniProt Q9NZQ7)
T1 construct: [hPD-L1(19-239)-tobacco vein mottling virus protease cleavage site (TVMV)-His]; made in house; host or cells: HEK293T cells
Experiment: PD-1/PD-L1 Homogenous Time-Resolved Fluorescence (HTRF) binding assay
Settings: inhibition of PD-1-Ig binding to PD-L1-TVMV-His; numeric values
From the text: The ability of the macrocyclic peptides of the present disclosure to bind to PD-L1 was investigated using a PD-1/PD-L1 Homogenous Time-Resolved Fluorescence (HTRF) binding assay.
Homogenous Time-Resolved Fluorescence (HTRF) Assays of Binding of Soluble PD-1 to Soluble PD-L1. Soluble PD-1 and soluble PD-L1 refers to proteins with carboxyl-end truncations that remove the transmembrane-spanning regions and are fused to heterologous sequences, specifically the Fc portion of the human immunoglobuling G sequence (Ig) or the hexahistidine epitope tag (SEQ ID NO: 3) (His). All binding studies were performed in an HTRF assay buffer consisting of dPBS supplemented with 0.1% (w/v) bovine serum albumin and 0.05% (v/v) Tween-20. For the PD-1-Ig/PD-L1-His binding assay, inhibitors were pre-incubated with PD-L1-His (10 nM final) for 15 m in 4 μl of assay buffer, followed by addition of PD-1-Ig (20 nM final) in 1 μl of assay buffer and further incubation for 15 m. PD-L1 fusion proteins from either human, cynomologous macaques, mouse, or other species were used. HTRF detection was achieved using europium crypate-labeled anti-Ig monoclonal antibody (1 nM final) and allophycocyanin (APC) labeled anti-His monoclonal antibody (20 nM final). Antibodies were diluted in HTRF detection buffer and 5 μl was dispensed on top of binding reaction. The reaction was allowed to equilibrate for 30 minutes and signal (665 nm/620 nm ratio) was obtained using an EnVision fluorometer. Additional binding assays were established between PD-1-Ig/PD-L2-His (20 and 5 nM, respectively), CD80-His/PD-L1-Ig (100 and 10 nM, respectively) and CD80-His/CTLA4-Ig (10 and 5 nM, respectively). Binding/competition studies between biotinylated Compound No. 71 and human PD-L1-His were performed as follows. Macrocyclic peptide inhibitors were pre-incubated with PD-L1-His (10 nM final) for 60 minutes in 4 μl of assay buffer followed by addition of biotinylated Compound No. 71 (0.5 nM final) in 1 μl of assay buffer. Binding was allowed to equilibrate for 30 minutes followed by addition of europium crypated labeled Streptavidin (2.5 pM final) and APC-labeled anti-His (20 nM final) in 5 μl of HTRF buffer. The reaction was allowed to equilibrate for 30 m and signal (665 nm/620 nm ratio) was obtained using an EnVision fluorometer.
Recombinant Proteins. Carboxyl-truncated human PD-1 (amino acids 25-167) with a C-terminal human Ig epitope tag [hPD-1 (25-167)-3S-IG] and human PD-L1 (amino acids 18-239) with a C-terminal His epitope tag [hPD-L1(19-239)-tobacco vein mottling virus protease cleavage site (TVMV)-His] were expressed in HEK293T cells and purified sequentially by recombinant Protein A affinity chromatography and size exclusion chromatography. Human PD-L2-His (Sino Biologicals), CD80-His (Sino Biologicals), CTLA4-Ig (RnD Systems) were all obtained through commercial sources.

T1 sequence (Q9NZQ7 with tags, fused parts or gaps): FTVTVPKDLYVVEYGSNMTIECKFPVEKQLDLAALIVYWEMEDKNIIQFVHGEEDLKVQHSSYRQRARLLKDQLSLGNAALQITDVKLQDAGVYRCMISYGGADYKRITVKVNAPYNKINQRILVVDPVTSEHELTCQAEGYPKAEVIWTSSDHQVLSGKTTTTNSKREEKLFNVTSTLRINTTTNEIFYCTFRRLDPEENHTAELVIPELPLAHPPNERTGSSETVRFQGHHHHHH

Compound | IC50
CCCC[C@H]1C(=O)N[C@@H](C)C(=O)N[C@H](C(=O)NCC(N)=O)CSCC(=O)N[C@@H](Cc2ccc(O)cc2)C(=O)N2CCOC[C@H]2C(=O)N[C@@H](CC(N)=O)C(=O)N2CCC[C@H]2C(=O)N[C@@H](CN)C(=O)N[C@@H](CC(C)C)C(=O)N2C[C@H](O)C[C@H]2C(=O)N[C@@H](Cc2c[nH]c3ccccc23)C(=O)N[C@@H](CO)C(=O)N[C@@H](Cc2c[nH]c3ccccc23)c2nnnn2[C@@H](CCCC)C(=O)N1C [Example 1055] ({CH2CO}-Y[Morpholine(3S-CO)]NP[Dap]L[Hyp]WS[X1][NMeNle]ACG-NH2; thioether N-13) | 8 nM
CCCC[C@H]1C(=O)N(C)CC(=O)N[C@@H](CC(=O)O)C(=O)N[C@@H](C(C)C)C(=O)N(C)[C@@H](Cc2ccccc2)C(=O)NC2(CCCCC2)c2nnnn2CC(=O)N[C@@H](Cc2c[nH]c3ccccc23)C(=O)N[C@@H](Cc2ccc(O)cc2)C(=O)N[C@@H](CC(C)C)C(=O)N[C@H](C(=O)NCC(N)=O)CSCC(=O)N[C@@H](Cc2ccccc2)C(=O)N(C)[C@@H](Cc2ccccc2)C(=O)N1C [Example 3003] ({CH2CO}-F[NMeF][NMeNle][Sar]DV[NMeF][X2]WYLCG-NH2; thioether N-12) | 590 nM
CCCC[C@H]1C(=O)N(C)[C@@H](CCCC)C(=O)N[C@@H](CCCNC(=N)N)C(=O)N[C@H](C(=O)NCC(N)=O)CSCC(=O)N[C@@H](Cc2ccccc2)c2nnnn2[C@@H](C)C(=O)N[C@@H](CC(N)=O)C(=O)N2CCC[C@H]2C(=O)N[C@@H](Cc2cnc[nH]2)C(=O)N[C@@H](CC(C)C)C(=O)N(C)CC(=O)N[C@@H](Cc2c[nH]c3ccccc23)C(=O)N[C@@H](CO)C(=O)N[C@@H](Cc2c[nH]c3ccccc23)C(=O)N1C (single isomer, unassigned) [Example 1002] | 200 nM

Same assay, conditions: inhibition of PD-1-Ig binding to PD-L1-TVMV-His; range classes

Compound | IC50
CCCC[C@H]1C(=O)N[C@@H](CN)C(=O)N[C@H](C(=O)NCC(N)=O)CSCC(=O)N[C@@H](Cc2ccc(O)cc2)C(=O)N(C)[C@@H](C)C(=O)N[C@@H](CC(=O)O)C(=O)N2CCC[C@H]2C(=O)N[C@@H](CN)C(=O)N[C@@H](CCC(=O)O)C(=O)N2C[C@H](O)C[C@H]2C(=O)N[C@@H](Cc2c[nH]c3ccccc23)C(=O)N[C@@H](CO)C(=O)N[C@@H](Cc2cccc3ccccc23)c2nnnn2[C@@H](CCCC)C(=O)N1C [Example 1109] | 10 to 99 nM
CCCC[C@H]1C(=O)N(C)[C@@H](CCCC)C(=O)N[C@@H](CCCNC(=N)N)C(=O)N[C@H](C(=O)NCC(N)=O)CSCC(=O)N[C@@H](Cc2ccccc2)c2nnnn2[C@@H](C)C(=O)N[C@@H](CC(N)=O)C(=O)N2CCC[C@H]2C(=O)N[C@@H](Cc2cnc[nH]2)C(=O)N[C@@H](CC(C)C)C(=O)N(C)CC(=O)N[C@@H](Cc2c[nH]c3ccccc23)C(=O)N[C@@H](CO)C(=O)N[C@@H](Cc2c[nH]c3ccccc23)C(=O)N1C (single isomer, unassigned) [Example 1001] | 100 to 10000 nM
CCCCC1C(=O)N(C)[C@@H](CCCC)C(=O)N[C@@H](CCCNC(=N)N)C(=O)N[C@H](C(=O)NCC(N)=O)CSCC(=O)N[C@@H](Cc2ccccc2)c2nnnn2[C@@H](C)C(=O)N[C@@H](CC(N)=O)C(=O)N2CCC[C@H]2C(=O)N[C@@H](Cc2cnc[nH]2)C(=O)N[C@@H](CC(C)C)C(=O)N(C)CC(=O)N[C@@H](Cc2c[nH]c3ccccc23)C(=O)N[C@@H](CO)C(=O)N[C@@H](Cc2cccc3ccccc23)c2nnnn21 (some centres unmarked) [Example 1007] | 100 to 10000 nM
CCCC[C@H]1C(=O)N(C)[C@@H](CCCC)C(=O)N[C@@H](CC(C)C)C(=O)N[C@H](C(=O)NCC(=O)O)CSCC(=O)N[C@@H](Cc2ccc(O)cc2)c2nnnn2[C@@H](C)C(=O)N[C@@H](CC(N)=O)C(=O)N2CCC[C@H]2C(=O)NC(Cc2c[nH]cn2)C(=O)N[C@@H](CCC(N)=O)C(=O)N2C[C@H](O)C[C@H]2C(=O)N[C@@H](Cc2c[nH]c3ccccc23)C(=O)N[C@@H](CO)C(=O)N[C@@H](Cc2csc3ccccc23)C(=O)N1C (some centres unmarked) [Example 1061] ({CH2CO}-[Tyrψ(CN4)Ala]NP[ξH]Q[Hyp]WS[Bta][NMeNle][NMeNle]LCG-OH; thioether N-13) | 100 to 10000 nM
CCCC[C@@H]1C(=O)N[C@@H](CCCNC(=N)N)C(=O)N[C@H](C(=O)NCC(N)=O)CSCC(=O)N[C@@H](Cc2ccccc2)c2cnnn2[C@@H](C)C(=O)N[C@H](CC(N)=O)C(=O)N2CCC[C@H]2C(=O)N[C@@H](Cc2cnc[nH]2)C(=O)N[C@@H](CC(C)C)C(=O)N(C)CC(=O)N[C@@H](Cc2c[nH]c3ccccc23)C(=O)N[C@@H](CO)C(=O)N[C@@H](Cc2c[nH]c3ccccc23)C(=O)N(C)[C@@H](CCCC)C(=O)N1C (single isomer, unassigned) [Example 1004] | 100 to 10000 nM
CCCC[C@H]1C(=O)N[C@@H](CCC(=O)O)C(=O)N[C@H](C(=O)NCC(N)=O)CSCC(=O)N[C@@H](Cc2ccc(O)cc2)C(=O)N2CCOC[C@H]2C(=O)N[C@@H](CC(N)=O)C(=O)N2CCC[C@H]2C(=O)N[C@@H](CN)C(=O)N[C@@H](CC(C)C)C(=O)N2C[C@H](O)C[C@H]2C(=O)N[C@@H](Cc2c[nH]c3ccccc23)C(=O)N[C@@H](CO)C(=O)N[C@@H](Cc2c[nH]c3ccccc23)c2nnnn2[C@@H](CCCC)C(=O)N1C [Example 1053] ({CH2CO}-Y[Morpholine(3S-CO)]NP[Dap]L[Hyp]WS[X1][NMeNle]ECG-NH2; thioether N-13) | 10 to 99 nM
CCCC[C@@H]1C(=O)N[C@@H](CCCNC(=N)N)C(=O)N[C@H](C(=O)NCC(N)=O)CSCC(=O)N[C@@H](Cc2ccccc2)c2cnnn2[C@@H](C)C(=O)N[C@H](CC(N)=O)C(=O)N2CCC[C@H]2C(=O)N[C@@H](Cc2cnc[nH]2)C(=O)N[C@@H](CC(C)C)C(=O)N(C)CC(=O)N[C@@H](Cc2c[nH]c3ccccc23)C(=O)N[C@@H](CO)C(=O)N[C@@H](Cc2c[nH]c3ccccc23)C(=O)N(C)[C@@H](CCCC)C(=O)N1C (single isomer, unassigned) [Example 1003] | 100 to 10000 nM
CCCC[C@H]1C(=O)N[C@@H](CCCN)C(=O)N[C@H](C(=O)NCC(N)=O)CSCC(=O)N[C@@H](Cc2ccc(O)cc2)C(=O)N(C)[C@@H](C)C(=O)N[C@@H](CC(N)=O)C(=O)N2CCC[C@H]2C(=O)N[C@@H](Cc2cnc[nH]2)C(=O)N[C@@H](CC(C)C)C(=O)N2C[C@H](O)C[C@H]2C(=O)N[C@@H](Cc2c[nH]c3ccccc23)C(=O)N[C@@H](CO)C(=O)N[C@@H](Cc2c[nH]c3ccccc23)c2nnnn2[C@@H](CCCC)C(=O)N1C [Example 1050] ({CH2CO}-Y[NMeA]NPHL[Hyp]WS[X1][NMeNle][Orn]CG-NH2; thioether N-13) | 100 to 10000 nM
CCCC[C@H]1C(=O)N(C)[C@@H](CCCC)C(=O)N[C@@H](CC(C)C)C(=O)N[C@H](C(=O)NCC(N)=O)CSCC(=O)N[C@@H](Cc2ccc(O)cc2)c2nnnn2[C@@H](C)C(=O)N[C@@H](CC(N)=O)C(=O)N2CCC[C@H]2C(=O)N[C@@H](Cc2cnc[nH]2)C(=O)N[C@@H](CCC(N)=O)C(=O)N2C[C@H](O)C[C@H]2C(=O)N[C@@H](Cc2c[nH]c3ccccc23)C(=O)N[C@@H](CO)C(=O)N[C@@H](Cc2c[nH]c3ccccc23)C(=O)N1C [Example 1057] ({CH2CO}-[Tyrψ(CN4)Ala]NPHQ[Hyp]WSW[NMeNle][NMeNle]LCG-NH2; thioether N-13) | 100 to 10000 nM
CCCC[C@H]1C(=O)N[C@@H](CN)C(=O)N[C@H](C(=O)NCC(N)=O)CSCC(=O)N[C@@H](Cc2ccc(O)cc2)C(=O)N(C)[C@@H](C)C(=O)N[C@@H](CC(=O)O)C(=O)N2CCC[C@H]2C(=O)N[C@@H](Cc2c[nH]cn2)C(=O)N[C@@H](CCC(=O)O)C(=O)N2C[C@H](O)C[C@H]2C(=O)N[C@@H](Cc2c[nH]c3ccccc23)C(=O)N[C@@H](CO)C(=O)N[C@@H](Cc2cccc3ccccc23)c2nnnn2[C@@H](CCCC)C(=O)N1C [Example 1108] | 100 to 10000 nM
CCCC[C@H]1C(=O)N(C)[C@@H](CCCC)C(=O)N[C@@H](CCCN)C(=O)N[C@H](C(=O)NCC(N)=O)CSCC(=O)N[C@@H](Cc2ccc(O)cc2)c2nnnn2[C@@H](C)C(=O)N[C@@H](CC(N)=O)C(=O)N2CCC[C@H]2C(=O)N[C@@H](CN)C(=O)N[C@@H](CC(C)C)C(=O)N2C[C@H](O)C[C@H]2C(=O)N[C@@H](Cc2c[nH]c3ccccc23)C(=O)N[C@@H](CO)C(=O)N[C@@H](Cc2c[nH]c3ccccc23)C(=O)N1C [Example 1014] ({CH2CO}-[Tyrψ(CN4)Ala]NP[Dap]L[Hyp]WSW[NMeNle][NMeNle][Orn]CG-NH2; thioether N-13) | 5 to 9.9 nM
